Experimental data reported in patent US20240240226A1, “FLUOROGENIC ASSAY FOR RAPID SCREENING OF BACTERIAL BETA-LACTAMASE ACTIVITY” (The Board of Trustees of the Leland Stanford Junior …, priority 2021, published 2024).

Assay: Stability test in H2O2 in PBS
Assay type: physicochemical
Conditions: room temperature
Experimental: FIG. 2 illustrates the characterization of CDA with recombinant TEM-1 Bla, esterase, HRP, and H2O2. a) Stability test of CDA in different concentrations of H2O2 in PBS. The signal of PBS was subtracted and the absolute values were plotted. b) Fluorescence enhancement of CDA treated with esterase […], TEM-1 Bla (100 nM) and H2O2 (100 μM or 1 mM). c) Activation of CDA by esterase (1 μg/mL) and TEM-1 Bla (100 nM) with or without oxygen in the reaction. Glass flasks with working solution were continuously vacuumed to maintain a deoxidized environment. Samples were transferred and scanned immediate at each time point in a black 96 well plate. Error bars represent ±SD, n=3. d) Fluorescence enhancement of CDA treated with esterase (1 μg/mL), TEM-1 Bla (100 nM), HRP (1 unit/ml), and H2O2 (1 μM). e) Fluorescence enhancement of different concentrations of CDA treated with esterase (1 μg/mL), TEM-1 Bla (100 nM) and H2O2 (1 mM). f) Fluorescence enhancement of CDA treated with indicated amounts of β-lactamases, esterase (1 μg/mL) and H2O2 (1 mM) after incubation at room temperature for 2 h. […] Data were collected on a Tecan Safire microplate reader with excitation at 570 nm and emission at 600 nm. […]
As oxidation is the essential step in converting β-lactamase/esterase processed CDA to resorufin, the stability of CDA was evaluated in different concentrations of H2O2 (FIG. 2a). […]

## CC(=O)Oc1ccc2c(c1)Oc1cc(OC(C)=O)ccc1N2C(=O)OCc1ccc(SCC2=C(C(=O)O)N3C(=O)[C@@H](NC(=O)Cc4ccccc4)[C@H]3SC2)cc1 [CDA, 3-(((4-(((3,7-diacetoxy-10H-phenoxazine-10-carbonyl)oxy)methyl)phenyl)thio)methyl)-8-oxo-7-(2-phenylacetamido)-5-thia-1-azabicyclo[4.2.0]oct-2-ene-2-carboxylic acid]
H2O2 1 mM, 2 hours
  stability of the sulfur center in H2O2 (LC-MS): stable
Up to 1 mM H2O2 in PBS, within 2 hours
  spontaneous hydrolysis in H2O2: Almost no spontaneous hydrolysis
